The text below walks through data of patent publication US12129221B2, “Difluoro phenyl amide RIP1 inhibitor” (SIRONAX LTD, priority 2018, dated 2024).

The structures appear in SMILES notation. Read-outs that look alike come from different tables or passages of the source.

In one series the test system is necrosis. As to the kind of experiment: Necrosis inhibitory activity (cell necrosis / cell viability assay). The series is classed as cell-based. Particulars: read-out: EC50. The source says: Necrosis Inhibitory Activity
Representative IC50 of hRIP1 Kinase Assay Correlated with Our IC50 of Cell Necrosis Assay: […]

A further series deals with ferroptosis. As to the kind of experiment: Ferroptosis inhibitor activity. Type of series: cell-based. The settings on record: 1 uM threshold activity extrapolated. The source says: Ferroptosis Inhibitor Activity 1 Um Threshold Activity Extrapolated
Series [1] can be described thus: Prodrug enhanced metabolic stability: liver microsome (L). Type of series: in vitro ADME. Details: key: +, Extrapolated. The source says:
(§1) Prodrug Enhanced Metabolic Stability: Liver Microsome (L), Hepatocyte (H) and PK

The nature of series [2]: Prodrug enhanced metabolic stability: hepatocyte (H). The series is classed as in vitro ADME. Details: key: +, Extrapolated.
Description: as §1

The nature of series [3]: Prodrug enhanced metabolic stability: PK. Type of series: in vivo. Details: key: +, Extrapolated.
Description: as §1

The mark [4] stands for this setting: Necrosis Inhibitory Activity, given as range.

`CCC(C)(C)C(=O)N(O)Cc1ccccc1F` [Compound 1, N-(2-fluorobenzyl)-N-hydroxy-2,2-dimethylbutanamide]: the figures for the EC50 in the series on necrosis (setting [4]) and in the series with ferroptosis were 0.001 to 1 µM and 1 to 10 µM, respectively.

On to `CCC(C)(C)C(=O)N(O)Cc1cccc(F)c1` [Compound 2, N-(3-fluorobenzyl)-N-hydroxy-2,2-dimethylbutanamide], for which the EC50 with necrosis (setting [4]) was 0.001 to 1 µM; with ferroptosis, 1 to 10 µM.

For the compound `CCC(C)(C)C(=O)N(O)Cc1ccccc1Cl` [Compound 3, N-(2-chlorobenzyl)-N-hydroxy-2,2-dimethylbutanamide], the figures for the EC50 in the series on necrosis (setting [4]) and in the series with ferroptosis were 0.001 to 1 µM and 1 to 10 µM, respectively.

As to `CCC(C)(C)C(=O)N(O)Cc1cccc(Cl)c1` [Compound 4, N-(3-chlorobenzyl)-N-hydroxy-2,2-dimethylbutanamide], the EC50 is 0.001 to 1 µM with necrosis (setting [4]) and 1 to 10 µM in the series on ferroptosis.

As to `CCC(C)(C)C(=O)N(O)Cc1cccc(Br)c1` [Compound 5, N-(3-bromobenzyl)-N-hydroxy-2,2-dimethylbutanamide], the figures for the EC50 with necrosis (setting [4]) and with ferroptosis were 0.001 to 1 µM and 1 to 10 µM, respectively.

Take `CC(C)(C(=O)N(O)Cc1ccccc1)C(F)(F)F` [Compound 6, N-benzyl-3,3,3-trifluoro-N-hydroxy-2,2-dimethylpropanamide]: the EC50 was 0.001 to 1 µM in the series on necrosis (setting [4]) and 1 to 10 µM in the series on ferroptosis.

In the case of `CC(C)(C)C(=O)N(O)Cc1ccccc1` [Compound 7, N-benzyl-N-hydroxypivalamide], the concentration giving a half-maximal response (EC50) was 0.001 to 1 µM in the series on necrosis (setting [4]) and 1 to 10 µM in the series with ferroptosis.

Turning to `CCC(C)(C)C(=O)N(O)Cc1ccccn1` [Compound 8, N-hydroxy-2,2-dimethyl-N-(pyridin-2-ylmethyl)butanamide], the EC50 in the series with necrosis (setting [4]) and in the series on ferroptosis was 1 to 10 µM in each case.

Take `CCC(C)(C)C(=O)N(O)Cc1cccc(F)c1F` [Compound 9, N-(2,3-difluorobenzyl)-N-hydroxy-2,2-dimethylbutanamide]: the values for the EC50 in the series on necrosis (setting [4]) and with ferroptosis were 0.001 to 1 µM and 1 to 10 µM, respectively.

On to `CCC(C)(C)C(=O)N(O)Cc1c(F)cc(F)cc1F` [Compound 10, N-hydroxy-2,2-dimethyl-N-(2,4,6-trifluorobenzyl)butanamide], for which the EC50 in the series on necrosis (setting [4]) and in the series with ferroptosis was 1 to 10 µM in each case.

For `CCC(C)(C)C(=O)N(O)Cc1c(F)c(F)c(F)c(F)c1F` [Compound 11, N-hydroxy-2,2-dimethyl-N-((perfluorophenyl)methyl)butanamide], the EC50 with necrosis (setting [4]) and in the series with ferroptosis was 1 to 10 µM in each case.

In the case of `CCC(C)(C)C(=O)N(O)Cc1cc(F)cc(C#N)c1` [Compound 12, N-(3-cyano-5-fluorobenzyl)-N-hydroxy-2,2-dimethylbutanamide], the EC50 in the series on necrosis (setting [4]) is 0.001 to 1 µM; in the series on ferroptosis it was 1 to 10 µM.

For the compound `CCC(C)(C)C(=O)N(O)Cc1cc(F)ccc1F` [Compound 14, N-(2,5-difluorobenzyl)-N-hydroxy-2,2-dimethylbutanamide], the results for the concentration for a half-maximal effect (EC50) with necrosis (setting [4]) and with ferroptosis were 0.001 to 1 µM and 1 to 10 µM, respectively.

With `CCC(C)(C)C(=O)N(O)Cc1cc(F)cc(Cl)c1` [Compound 17, N-(3-chloro-5-fluorobenzyl)-N-hydroxy-2,2-dimethylbutanamide], the EC50 was 0.001 to 1 µM in the series with necrosis (setting [4]) and 1 to 10 µM with ferroptosis.

As for `CCC(C)(C)C(=O)N(O)Cc1ccc(Br)cc1` [Compound 18, N-(4-bromobenzyl)-N-hydroxy-2,2-dimethylbutanamide], the EC50 is 0.001 to 1 µM with necrosis (setting [4]) and 1 to 10 µM in the series with ferroptosis.

For `CCC(C)(C)C(=O)N(O)Cc1cc(C)c(C)s1` [Compound 21, N-((4,5-dimethylthiophen-2-yl)methyl)-N-hydroxy-2,2-dimethylbutanamide], the concentration giving a half-maximal response (EC50) is 0.001 to 1 µM with necrosis (setting [4]) and 1 to 10 µM in the series on ferroptosis.

On to `CCC(C)(C)C(=O)N(O)Cc1sccc1C` [Compound 22, N-hydroxy-2,2-dimethyl-N-((3-methylthiophen-2-yl)methyl)butanamide], for which the EC50 in the series with necrosis (setting [4]) and in the series on ferroptosis was 1 to 10 µM in each case.

`CCC(C)(C)C(=O)N(O)CC1=CCCCC1` [Compound 25, N-(cyclohex-1-en-1-ylmethyl)-N-hydroxy-2,2-dimethylbutanamide]: the figures for the EC50 in the series on necrosis (setting [4]) and with ferroptosis were 0.001 to 1 µM and 1 to 10 µM, respectively.

Regarding `[2H]C([2H])C([2H])([2H])C(C)(C)C(=O)N(O)Cc1ccc(F)cc1` [Compound 29, N-(4-fluorobenzyl)-N-hydroxy-2,2-dimethylbutanamide-3,3,4,4-d4], the EC50 in the series on necrosis (setting [4]) was 0.001 to 1 µM; in the series on ferroptosis, 1 to 10 µM.

For the compound `[2H]c1c([2H])c([2H])c(C([2H])([2H])N(O)C(=O)C(C)(C)CC)c([2H])c1[2H]` [Compound 30, N-hydroxy-2,2-dimethyl-N-((phenyl-d5)methyl-d2)butanamide], the results for the 50% effective concentration (EC50) with necrosis (setting [4]) and with ferroptosis were 0.001 to 1 µM and 1 to 10 µM, respectively.

In the case of `[2H]CC([2H])C(C)(C)C(=O)N(O)C([2H])([2H])c1c([2H])c([2H])c([2H])c([2H])c1[2H]` (stereo not shown) [Compound 31, N-hydroxy-2,2-dimethyl-N-((phenyl-d5)methyl-d2)butanamide-3,4-d2], the figures for the EC50 in the series with necrosis (setting [4]) and in the series on ferroptosis were 0.001 to 1 µM and 1 to 10 µM, respectively.

As for `CC1(C(C)(C)C(=O)N(O)Cc2ccccc2)CC1` [Compound 32, N-benzyl-N-hydroxy-2-methyl-2-(1-methylcyclopropyl) propanamide], the concentration giving a half-maximal response (EC50) in the series with necrosis (setting [4]) was 0.001 to 1 µM; in the series with ferroptosis, 1 to 10 µM.

In the case of `O=C(C1CCCC1)N(O)Cc1ccccc1` [Compound 33, N-benzyl-N-hydroxycydopentanecarboxamide], the EC50 with necrosis (setting [4]) and with ferroptosis was 1 to 10 µM in each case.

Consider `O=C(N(O)Cc1ccccc1)C1(C(F)(F)F)CCCC1` [Compound 34, N-benzyl-N-hydroxy-1-(trifluoromethyl)cyclopentane-1-carboxamide], for which the EC50 is 0.001 to 1 µM in the series with necrosis (setting [4]) and 1 to 10 µM in the series on ferroptosis.

Take `CC1(C(=O)N(O)Cc2ccccc2)CCCCC1` [Compound 36, N-benzyl-N-hydroxy-1-methylcyclohexane-1-carboxamide]: the values for the EC50 with necrosis (setting [4]) and with ferroptosis were 0.001 to 1 µM and 1 to 10 µM, respectively.

Consider `O=C(C1CCCCC1)N(O)Cc1ccccc1` [Compound 37, N-benzyl-N-hydroxycyclohexanecarboxamide], for which the EC50 with necrosis (setting [4]) and in the series on ferroptosis was 1 to 10 µM in each case.

Regarding `CCC1(C(=O)N(O)Cc2ccc(F)cc2)CC1` [Compound 39, 1-ethyl-N-(4-fluorobenzyl)-N-hydroxycyclopropane-1-carboxamide], the EC50 in the series with necrosis (setting [4]) was 1 to 100 µM; in the series on ferroptosis, 1 to 10 µM.

In the case of `CCC1(C(=O)N(O)Cc2ccc(Cl)cc2)CC1` [Compound 40, N-(4-chlorobenzyl)-1-ethyl-N-hydroxycyclopropane-1-carboxamide], the EC50 with necrosis (setting [4]) and in the series with ferroptosis was 1 to 10 µM throughout.

Take `CCC1(C(=O)N(O)Cc2cc(F)cc(F)c2)CC1` [Compound 41, N-(3,5-difluorobenzyl)-1-ethyl-N-hydroxycyclopropane-1-carboxamide]: the EC50 with necrosis (setting [4]) and in the series on ferroptosis was 1 to 10 µM throughout.

For the compound `CC(C)(C(=O)N(O)Cc1ccc(Br)cc1)C(F)(F)F` [Compound 42, N-(4-bromobenzyl)-3,3,3-trifluoro-N-hydroxy-2,2-dimethylpropanamide], the EC50 in the series with necrosis (setting [4]) was 0.001 to 1 µM; with ferroptosis, 1 to 10 µM.

In the case of `CC(C)(C(=O)N(O)Cc1ccc(F)cc1)C(F)(F)F` [Compound 43, 3,3,3-trifluoro-N-(4-fluorobenzyl)-N-hydroxy-2,2-dimethylpropanamide], the EC50 is 0.001 to 1 µM in the series with necrosis (setting [4]) and 1 to 10 µM with ferroptosis.

For `CC(C)(C(=O)N(O)Cc1ccc(Cl)cc1)C(F)(F)F` [Compound 44, N-(4-chlorobenzyl)-3,3,3-trifluoro-N-hydroxy-2,2-dimethylpropanamide], the concentration giving a half-maximal response (EC50) in the series with necrosis (setting [4]) was 0.001 to 1 µM; with ferroptosis it was 1 to 10 µM.

As for `CC(C)(C(=O)N(O)Cc1cc(F)cc(F)c1)C(F)(F)F` [Compound 45, N-(3,5-difluorobenzyl)-3,3,3-trifluoro-N-hydroxy-2,2-dimethylpropanamide], the concentration giving a half-maximal response (EC50) with necrosis (setting [4]) is 0.001 to 1 µM; in the series with ferroptosis it was 1 to 10 µM.

Consider `CC(C)(C(=O)N(O)Cc1cc(F)c(F)c(F)c1)C(F)(F)F` [Compound 46, 3,3,3-trifluoro-N-hydroxy-2,2-dimethyl-N-(3,4,5-trifluorobenzyl)propenamide], for which the EC50 in the series on necrosis (setting [4]) and in the series on ferroptosis was 1 to 10 µM throughout.

On to `Cc1cc(CN(O)C(=O)C(C)(C)C(F)(F)F)sc1C` [Compound 47, N-((4,5-dimethylthiophen-2-yl)methyl)-3,3,3-trifluoro-N-hydroxy-2,2-dimethylpropanamide], for which the EC50 with necrosis (setting [4]) was 0.001 to 1 µM; in the series on ferroptosis, 1 to 10 µM.

For the compound `CC(C)(C(=O)N(O)Cc1cccs1)C(F)(F)F` [Compound 49, 3,3,3-trifluoro-N-hydroxy-2,2-dimethyl-N-(thiophen-2-ylmethyl)propanamide], the 50% effective concentration (EC50) with necrosis (setting [4]) was 0.001 to 1 µM; with ferroptosis, 1 to 10 µM.

On to `CCOC(=O)ON(Cc1ccccc1)C(=O)C(C)(C)CC` [Compound 50, N-benzyl-N-((ethoxycarbonyl)oxy)-2,2-dimethylbutanamide], for which the EC50 in the series with necrosis (Active Pro-drugs) was 0.0696 µM. Moreover, the L entry in series [1] is given as “+”. The H result in series [2] is “+”. Besides, in series [3], the PK result is recorded as “+”.

On to `CCC(C)(C)C(=O)N(Cc1ccccc1)OC(=O)c1ccccc1` [Compound 51, N-(benzoyloxy)-N-benzyl-2,2-dimethylbutanamide], for which the EC50 with necrosis (Active Pro-drugs) was 0.284 µM. Also, the L entry in series [1] was “+”. The H entry in series [2] is “+”. Moreover, the PK result in series [3] is reported as “+”.

`O=C(C1CCN(c2ncc(F)cn2)CC1)N(O)Cc1ccc(F)cc1` [Compound 85, N-(4-fluorobenzyl)-1-(5-fluoropyrimidin-2-yl)-N-hydroxypiperidine-4-carboxamide]: the EC50 in the series on necrosis (setting [4]) and in the series with ferroptosis was 1 to 10 µM in each case.

As usually defined, the EC50 is the midpoint of the concentration-response curve.
